Results from PubChem BioAssay AID1963875 (Molecular Pharmacology Branch, DTP, NCI, 2024).

Test system: KRAS-mutant PDC complex spheroid viability
Experiment: Anticancer human tumor 186277-243-T-J2-PDC patient-derived colon adenocarcinoma cell line growth inhibition [KRAS2]
Details: for IC50: curve of first compound; for viability, T/C: stronger effect = lower value
Outline: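 Combination screen of spheroid viability in tumor-cell co-cultures with endothelial (HUVEC) and mesenchymal stem cell stroma. Each agent was tested in half-log dilutions, topping at clinical Cmax or at 10 microM without a known Cmax.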

[1] = second compound 0.0316 µM, first compound 0.0316 µM
[2] = second compound 0.1 µM, first compound 0.000316 µM
[3] = second compound 0.1 µM, first compound 0.001 µM
[4] = second compound 0.1 µM, first compound 0.00316 µM
[5] = second compound 0.1 µM, first compound 0.01 µM
[6] = second compound 0.1 µM, first compound 0.0316 µM
[7] = second compound 0.316 µM, first compound 0.000316 µM
[8] = second compound 0.316 µM, first compound 0.001 µM
[9] = second compound 0.316 µM, first compound 0.00316 µM
[10] = second compound 0.316 µM, first compound 0.01 µM
[11] = second compound 0.316 µM, first compound 0.0316 µM
[12] = second compound 1 µM, first compound 0.000316 µM
[13] = second compound 1 µM, first compound 0.001 µM
[14] = second compound 1 µM, first compound 0.00316 µM
[15] = second compound 1 µM, first compound 0.01 µM
[16] = second compound 1 µM, first compound 0.0316 µM
[17] = second compound 3.16 µM, first compound 0.000316 µM
[18] = second compound 3.16 µM, first compound 0.001 µM
[19] = second compound 3.16 µM, first compound 0.00316 µM
[20] = second compound 3.16 µM, first compound 0.01 µM
[21] = second compound 3.16 µM, first compound 0.0316 µM
[22] = second compound 0.1 µM, first compound 0.1 µM
[23] = second compound 0.1 µM, first compound 0.316 µM
[24] = second compound 0.1 µM, first compound 1 µM
[25] = second compound 0.1 µM, first compound 3.16 µM
[26] = second compound 0.1 µM, first compound 10 µM
[27] = second compound 0.316 µM, first compound 0.1 µM
[28] = second compound 0.316 µM, first compound 0.316 µM
[29] = second compound 0.316 µM, first compound 1 µM
[30] = second compound 0.316 µM, first compound 3.16 µM
[31] = second compound 0.316 µM, first compound 10 µM
[32] = second compound 1 µM, first compound 0.1 µM
[33] = second compound 1 µM, first compound 0.316 µM
[34] = second compound 1 µM, first compound 1 µM
[35] = second compound 1 µM, first compound 3.16 µM
[36] = second compound 1 µM, first compound 10 µM
[37] = second compound 3.16 µM, first compound 0.1 µM
[38] = second compound 3.16 µM, first compound 0.316 µM
[39] = second compound 3.16 µM, first compound 1 µM
[40] = second compound 3.16 µM, first compound 3.16 µM
[41] = second compound 3.16 µM, first compound 10 µM
[42] = second compound 10 µM, first compound 0.000316 µM
[43] = second compound 10 µM, first compound 0.001 µM
[44] = second compound 10 µM, first compound 0.00316 µM
[45] = second compound 10 µM, first compound 0.01 µM
[46] = second compound 10 µM, first compound 0.0316 µM
[47] = second compound 10 µM, first compound 0.1 µM
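For viability, T/C in this document: viability read after seven days of compound exposure; 100% = DMSO vehicle-treated spheroids so lower means less viable.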

## CC(=O)Nc1cccc(-n2c(=O)n(C3CC3)c(=O)c3c(Nc4ccc(I)cc4F)n(C)c(=O)c(C)c32)c1 + C=CC(=O)N1CCN(c2nc(OCC3CCCN3C)nc3c2CCN(c2cccc4cccc(C)c24)C3)CC1CC#N
Second compound 0.0316 µM
  IC50: 0.749 nM
Second compound 0.1 µM
  IC50: 0.668 nM
Second compound 0.316 µM
  IC50: 0.67 nM
Second compound 1 µM
  IC50: 0.483 nM
Second compound 3.16 µM
  IC50: < 0.1 nM
Second compound 0.0316 µM, first compound 0.0001 µM
  viability, T/C: 98.2%
Second compound 0.0316 µM, first compound 0.000316 µM
  viability, T/C: 115%
Second compound 0.0316 µM, first compound 0.001 µM
  viability, T/C: 30.9%
Second compound 0.0316 µM, first compound 0.00316 µM
  viability, T/C: 7.61%
Second compound 0.0316 µM, first compound 0.01 µM
  viability, T/C: 2.46%
[1]
  viability, T/C: 1.21%
Second compound 0.1 µM, first compound 0.0001 µM
  viability, T/C: 88.8%
[2]
  viability, T/C: 103%
[3]
  viability, T/C: 25.1%
[4]
  viability, T/C: 6.76%
[5]
  viability, T/C: 2.36%
[6]
  viability, T/C: 1.26%
Second compound 0.316 µM, first compound 0.0001 µM
  viability, T/C: 103%
[7]
  viability, T/C: 99%
[8]
  viability, T/C: 23.8%
[9]
  viability, T/C: 5.26%
[10]
  viability, T/C: 2.18%
[11]
  viability, T/C: 1.26%
Second compound 1 µM, first compound 0.0001 µM
  viability, T/C: 105%
[12]
  viability, T/C: 74%
[13]
  viability, T/C: 8.66%
[14]
  viability, T/C: 2.88%
[15]
  viability, T/C: 1.12%
[16]
  viability, T/C: 0.75%
Second compound 3.16 µM, first compound 0.0001 µM
  viability, T/C: 0.32%
[17]
  viability, T/C: 0.18%
[18]
  viability, T/C: 0.13%
[19]
  viability, T/C: 0.12%
[20]
  viability, T/C: 0.11%
[21]
  viability, T/C: 0.19%

## O=C(c1cc(Cc2n[nH]c(=O)c3ccccc23)ccc1F)N1CCN(C(=O)C2CC2)CC1 + C=CC(=O)N1CCN(c2nc(OCC3CCCN3C)nc3c2CCN(c2cccc4cccc(C)c24)C3)CC1CC#N
Second compound 0.0316 µM
  IC50: 1170 nM
Second compound 0.1 µM
  IC50: 3530 nM
Second compound 0.316 µM
  IC50: 8700 nM
Second compound 1 µM
  IC50: 7630 nM
Second compound 3.16 µM
  IC50: < 31.6 nM
[1]
  viability, T/C: 105%
Second compound 0.0316 µM, first compound 0.1 µM
  viability, T/C: 107%
Second compound 0.0316 µM, first compound 0.316 µM
  viability, T/C: 96.2%
Second compound 0.0316 µM, first compound 1 µM
  viability, T/C: 53.1%
Second compound 0.0316 µM, first compound 3.16 µM
  viability, T/C: 30.7%
Second compound 0.0316 µM, first compound 10 µM
  viability, T/C: 26.6%
[6]
  viability, T/C: 104%
[22]
  viability, T/C: 119%
[23]
  viability, T/C: 121%
[24]
  viability, T/C: 114%
[25]
  viability, T/C: 51.6%
[26]
  viability, T/C: 34.3%
[11]
  viability, T/C: 113%
[27]
  viability, T/C: 111%
[28]
  viability, T/C: 116%
[29]
  viability, T/C: 118%
[30]
  viability, T/C: 72.2%
[31]
  viability, T/C: 47%
[16]
  viability, T/C: 108%
[32]
  viability, T/C: 107%
[33]
  viability, T/C: 107%
[34]
  viability, T/C: 107%
[35]
  viability, T/C: 77.3%
[36]
  viability, T/C: 41.6%
[21]
  viability, T/C: 0.23%
[37]
  viability, T/C: 0.3%
[38]
  viability, T/C: 0.47%
[39]
  viability, T/C: 0.26%
[40]
  viability, T/C: 0.28%
[41]
  viability, T/C: 0.22%

## Cn1ncnc1[C@H]1c2n[nH]c(=O)c3cc(F)cc(c23)N[C@@H]1c1ccc(F)cc1 + COc1cc2nc(C)nc(NC(C)c3cc(N)cc(C(F)(F)F)c3)c2cc1OC1CCOC1
Second compound 0.1 µM
  IC50: > 100 nM
Second compound 0.316 µM
  IC50: > 100 nM
Second compound 1 µM
  IC50: > 100 nM
Second compound 3.16 µM
  IC50: > 100 nM
Second compound 10 µM
  IC50: 9.92 nM
[2]
  viability, T/C: 98.7%
[3]
  viability, T/C: 107%
[4]
  viability, T/C: 106%
[5]
  viability, T/C: 109%
[6]
  viability, T/C: 103%
[22]
  viability, T/C: 79.1%
[7]
  viability, T/C: 108%
[8]
  viability, T/C: 120%
[9]
  viability, T/C: 105%
[10]
  viability, T/C: 89.4%
[11]
  viability, T/C: 90.5%
[27]
  viability, T/C: 74.5%
[12]
  viability, T/C: 109%
[13]
  viability, T/C: 112%
[14]
  viability, T/C: 104%
[15]
  viability, T/C: 99.2%
[16]
  viability, T/C: 83.4%
[32]
  viability, T/C: 64.5%
[17]
  viability, T/C: 81.8%
[18]
  viability, T/C: 116%
[19]
  viability, T/C: 108%
[20]
  viability, T/C: 86.3%
[21]
  viability, T/C: 74.7%
[37]
  viability, T/C: 63.9%
[42]
  viability, T/C: 79.2%
[43]
  viability, T/C: 68.5%
[44]
  viability, T/C: 63.6%
[45]
  viability, T/C: 45.5%
[46]
  viability, T/C: 42.2%
[47]
  viability, T/C: 25%

## Cn1ncnc1[C@H]1c2n[nH]c(=O)c3cc(F)cc(c23)N[C@@H]1c1ccc(F)cc1 + CNCc1ccccc1-c1csc(C(C)Nc2nc(C)nc3cc(OC)c(OC)cc23)c1
Second compound 0.1 µM
  IC50: > 100 nM
Second compound 0.316 µM
  IC50: > 100 nM
Second compound 1 µM
  IC50: > 100 nM
Second compound 3.16 µM
  IC50: < 0.316 nM
Second compound 10 µM
  IC50: < 0.316 nM
[2]
  viability, T/C: 113%
[3]
  viability, T/C: 109%
[4]
  viability, T/C: 109%
[5]
  viability, T/C: 101%
[6]
  viability, T/C: 83.8%
[22]
  viability, T/C: 68.9%
[7]
  viability, T/C: 117%
[8]
  viability, T/C: 106%
[9]
  viability, T/C: 115%
[10]
  viability, T/C: 89.3%
[11]
  viability, T/C: 76.4%
[27]
  viability, T/C: 68.7%
[12]
  viability, T/C: 112%
[13]
  viability, T/C: 110%
[14]
  viability, T/C: 97.9%
[15]
  viability, T/C: 86%
[16]
  viability, T/C: 70.4%
[32]
  viability, T/C: 59.5%
[17]
  viability, T/C: 25.5%
[18]
  viability, T/C: 0.4%
[19]
  viability, T/C: 28.8%
[20]
  viability, T/C: 12.7%
[21]
  viability, T/C: 14.5%
[37]
  viability, T/C: 10.9%
[42]
  viability, T/C: 0.14%
[43]
  viability, T/C: 0.14%
[44]
  viability, T/C: 0.14%
[45]
  viability, T/C: 0.13%
[46]
  viability, T/C: 0.13%
[47]
  viability, T/C: 0.21%

## CC1(C)CCC(CN2CCN(c3ccc(C(=O)NS(=O)(=O)c4ccc(NCC5CCOCC5)c([N+](=O)[O-])c4)c(Oc4cnc5[nH]ccc5c4)c3)CC2)=C(c2ccc(Cl)cc2)C1 + CC1OCC2(CCN(c3cnc(Sc4ccnc(N)c4Cl)c(N)n3)CC2)C1N
Second compound 0.1 µM
  IC50: 2270 nM
Second compound 0.316 µM
  IC50: 2350 nM
Second compound 1 µM
  IC50: 2130 nM
Second compound 3.16 µM
  IC50: 1750 nM
Second compound 10 µM
  IC50: 1550 nM
[6]
  viability, T/C: 103%
[22]
  viability, T/C: 115%
[23]
  viability, T/C: 127%
[24]
  viability, T/C: 120%
[25]
  viability, T/C: 23.1%
[26]
  viability, T/C: 0.76%
[11]
  viability, T/C: 128%
[27]
  viability, T/C: 136%
[28]
  viability, T/C: 130%
[29]
  viability, T/C: 130%
[30]
  viability, T/C: 22.1%
[31]
  viability, T/C: 0.38%
[16]
  viability, T/C: 140%
[32]
  viability, T/C: 115%
[33]
  viability, T/C: 113%
[34]
  viability, T/C: 116%
[35]
  viability, T/C: 16%
[36]
  viability, T/C: 0.34%
[21]
  viability, T/C: 98.9%
[37]
  viability, T/C: 112%
[38]
  viability, T/C: 100%
[39]
  viability, T/C: 93.8%
[40]
  viability, T/C: 3.38%
[41]
  viability, T/C: 0.22%
[46]
  viability, T/C: 80.1%
[47]
  viability, T/C: 82.7%
Second compound 10 µM, first compound 0.316 µM
  viability, T/C: 87.7%
Second compound 10 µM, first compound 1 µM
  viability, T/C: 79%
Second compound 10 µM, first compound 3.16 µM
  viability, T/C: 2.4%
Second compound 10 µM, first compound 10 µM
  viability, T/C: 0.21%
